Assay results as given in patent US11285156B2, “Substituted piperazines as KRAS G12C inhibitors” (Amgen Inc., priority 2018, dated 2022).

Assays:
[1] = target: GDP-bound KRAS protein (aa 1-169), containing both G12C and C118A amino acid substitutions (Homo sapiens (Human), UniProt P01116, C118A/G12C); experiment: Coupled nucleotide exchange assay (SOS-mediated nucleotide exchange, AlphaScreen); assay type: biochemical; details: read-out: Coupled exchange IC50 (5 min; μM); 5 min compound pre-incubation
[2] = system: Phosphorylation of ERK1/2 in MIA PaCa-2 cells; experiment: Phospho-ERK1/2 MSD assay in MIA PaCa-2 cells; assay type: cell-based; details: Homo sapiens, MIA PaCa-2, 2 h, read-out: p-ERK IC50 (2 h, MiaPaCa-2; μM), 2 h compound treatment, MIA PaCa-2 cells, EGF stimulated
Procedure, shortened: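 Phospho-ERK1/2 measured by MSD electrochemiluminescence kit in RIPA lysates of MIA PaCa-2 cells. Cells were treated with compound titrations for 2 or 4 h at 37 °C, 5% CO2, followed by a 10 min pulse of 10 ng/mL EGF.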

[3] = system: Phosphorylation of ERK1/2 in A549 cells; experiment: Phospho-ERK1/2 MSD assay in A549 cells; assay type: cell-based; details: Homo sapiens, A549, 2 h, read-out: p-ERK IC50 (2 h, A549; μM), 2 h compound treatment, A549 cells, EGF stimulated
Procedure, shortened: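 Phospho-ERK1/2 was quantified by MSD immunoassay in RIPA lysates of MIA PaCa-2 or A549 cells. Before lysis, cells received 10 ng/mL EGF for 10 min after 2 or 4 h exposure at 37° C. to a compound concentration series.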

Sequence of GDP-bound KRAS protein (aa 1-169), containing both G12C and C118A amino acid substitutions (P01116 other isoform, or with tags, fused parts or gaps G12C/C118A): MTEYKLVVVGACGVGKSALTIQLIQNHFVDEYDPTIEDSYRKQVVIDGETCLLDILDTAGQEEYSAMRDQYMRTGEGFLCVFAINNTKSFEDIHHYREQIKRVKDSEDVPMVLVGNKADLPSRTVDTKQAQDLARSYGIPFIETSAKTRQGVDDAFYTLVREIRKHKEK

Row | SMILES | IC50 [1] [µM] | IC50 [2] [µM] | IC50 [3] [µM]
1 | C=CC(=O)N1C[C@H](C)N(c2nc(=O)n(-c3c(C)ccnc3C(C)C)c3nc(-c4c(F)cccc4C#N)c(Cl)cc23)C[C@H]1C (atropisomer, axis not shown; (M)) [Example 92-40, (M)-2-[6-Chloro-4-[(2S,5R)-2,5-dimethyl-4-prop-2-enoyl-piperazin-1-yl]-1-(2-isopropyl-4-methyl-3-pyridyl)-2-oxo-pyrido[2,3-d]pyrimidin-7-yl]-3-fluoro-benzonitrile] | 0.244 | 0.14 | > 7.5
2 | C=CC(=O)N1C[C@H](C)N(c2nc(=O)n(-c3c(C)ccnc3C(C)C)c3nc(-c4ccccc4C(C)=O)c(Cl)cc23)C[C@H]1C (atropisomer, axis not shown; (M)) [Example 92-41, (M)-7-(2-Acetylphenyl)-6-chloro-4-[(2S,5R)-2,5-dimethyl-4-prop-2-enoyl-piperazin-1-yl]-1-(2-isopropyl-4-methyl-3-pyridyl)pyrido [2,3-d]pyrimidin-2-one] | 0.117 | 0.075 | 3.75
3 | C=CC(=O)N1C[C@H](C)N(c2nc(=O)n(-c3c(C)ccnc3C(C)C)c3nc(-c4ccccc4)c(Cl)cc23)C[C@H]1C (atropisomer, axis not shown; (M)) [Example 92-42, (M)-6-Chloro-4-[(2S,5R)-2,5-dimethyl-4-prop-2-enoyl-piperazin-1-yl]-1-(2-isopropyl-4-methyl-3-pyridyl)-7-phenyl-pyrido[2,3-d]pyrimidin-2-one] | 0.117 | 0.08 | > 7.5
4 | C=CC(=O)N1C[C@H](C)N(c2nc(=O)n(-c3c(C)ccnc3C(C)C)c3nc(-c4cc(Cl)ccc4F)c(Cl)cc23)C[C@H]1C (atropisomer, axis not shown; (M)) [Example 92-44, (M)-6-Chloro-7-(5-chloro-2-fluoro-phenyl)-4-[(2S,5R)-2,5-dimethyl-4-prop-2-enoyl-piperazin-1-yl]-1-(2-isopropyl-4-methyl-3-pyridyl)pyrido [2,3-d]pyrimidin-2-one] | 0.04 | 0.098 | > 7.5
5 | C=CC(=O)N1C[C@H](C)N(c2nc(=O)n(-c3c(C)ccnc3C(C)C)c3nc(-c4ccccc4C)c(Cl)cc23)C[C@H]1C (atropisomer, axis not shown; (M)) [Example 92-45, (M)-6-Chloro-4-[(2S,5R)-2,5-dimethyl-4-prop-2-enoyl-piperazin-1-yl]-1-(2-isopropyl-4-methyl-3-pyridyl)-7-(o-tolyl)pyrido[2,3-d]pyrimidin-2-one] | 0.025 | 0.023 | > 7.5
6 | C=CC(=O)N1C[C@H](C)N(c2nc(=O)n(-c3c(C)ccnc3C(C)C)c3nc(-c4cccc(Cl)c4F)c(Cl)cc23)C[C@H]1C (atropisomer, axis not shown; (M)) [Example 92-46, (M)-6-Chloro-7-(3-chloro-2-fluoro-phenyl)-4-[(2S,5R)-2,5-dimethyl-4-prop-2-enoyl-piperazin-1-yl]-1-(2-isopropyl-4-methyl-3-pyridyl)pyrido [2,3-d]pyrimidin-2-one] | 0.023 | 0.032 | > 7.5
7 | C#Cc1ccccc1-c1nc2c(cc1Cl)c(N1C[C@@H](C)N(C(=O)C=C)C[C@@H]1C)nc(=O)n2-c1c(C)ccnc1C(C)C (atropisomer, axis not shown; (M)) [Example 92-47, (M)-6-Chloro-4-[(2S,5R)-2,5-dimethyl-4-prop-2-enoyl-piperazin-1-yl]-7-(2-ethynylphenyl)-1-(2-isopropyl-4-methyl-3-pyridyl)pyrido [2,3-d]pyrimidin-2-one] | 0.057 | 0.049 | > 7.5
8 | C#Cc1cccc(-c2nc3c(cc2Cl)c(N2C[C@@H](C)N(C(=O)C=C)C[C@@H]2C)nc(=O)n3-c2c(C)ccnc2C(C)C)c1 (atropisomer, axis not shown; (M)) [Example 92-48, (M)-6-Chloro-4-[(2S,5R)-2,5-dimethyl-4-prop-2-enoyl-piperazin-1-yl]-7-(3-ethynylphenyl)-1-(2-isopropyl-4-methyl-3-pyridyl)pyrido [2,3-d]pyrimidin-2-one] | 0.247 | 0.365 | > 7.5
